From US4588731A, “Derivatives of isoxazolo[4,5-c]quinoline(2H)-3-one and method of preparation and use as anxiolytic agents” (Roussel Uclaf, priority 1985, dated 1986)

Key:
benzodiazepine receptors = test: Affinity for benzodiazepine receptors (3H diazepam displacement, rat brain cortex membranes); assay type: binding, rats; settings: 3H diazepam 10^-9 M, 30 minutes at 0° C, read-out: C.I. 50 (concentration inhibiting 50% of the specific bond of 3H diazepam)
Experimental: A. Affinity for benzodiazepine receptors
The technique was inspired by that of Mohler et al [Science, Vol. 198 p. 849-851 (1977] in which the cortex from the brains of male rats weighing on average 150 g were homogenized to a twentieth (weight/volume) in 0.32M sucrose. After centrifuging the homogenate at 1000 g for 10 minutes at 0° C., the supernatant was centrifuged at 30,000 g for 20 minutes at 4° C. The residue was suspended in 20 volumes of Tris buffer HCl 50 mM pH 7.4 and centrifuged at 30,000 g for 20 minutes at 4° C. The new residue obtained was placed in 50 ml of Krebs Tris buffer HCl pH 7.4
2 ml of the suspension in the presence of ^3 H diazepam at a concentration of 10^-9 M were then incubated for 30 minutes at 0° C: (i) alone, (ii) with increasing concentrations of the product to be tested or, (iii) to determine the non-specific fixation, with non-radioactive diazepam at a concentration of 10^-6 M. The incubated suspension were filtered on Whatman GF/C and the filters were washed twice with 5 ml of Krebs Tris buffer HCl pH 7.4 at 0° C. The radioactivity of the filters was measured by liquid scintillation and the activity of the product was expressed in C.I.50, the concentration inhibiting 50% of the specific bond of ^3 H diazepam.

mice = test: Acute toxicity, oral route in mice (LD0); assay type: in vivo
Experimental: The lethal doses LD0 of the different compounds tested after administration by oral route in mice were evaluated. The maximum dose not provoking any mortality in 8 days was called LD0 and the results obtained are in Table II.

[1] = test system: level of serous corticosterone; test: Activity on serous level of corticosterone after stress from noise; assay type: in vivo; settings: Rattus norvegicus, 1 h; rats, oral, stress from noise (90 decibels) one hour after dosing; read-out: DE50 (dose which reduced the increase in the level of serous corticosterone by 50%)
Experimental: C. Activity on serous level of corticosterone after stress from noise.
Groups of 5 rats were formed the day before the test and placed in a quiet room. The compounds were administered orally the following day between 8 and 9 o'clock in the morning. One hour afterwards, stress was applied which consisted of taking the animals from the cage and placing them in a room where a radio was playing loudly (90 decibels), then half an hour later, giving them an intraperitoneal puncture without injection. Ten minutes after this, the rats were anesthetized with halothane and samples of blood were taken by decapitation. The levels of serous corticosterone were then determined.
The results are expressed in DE50, that is to say in a dose of the compound tested which reduced the increase in the level of serous corticosterone by 50% in animals treated in comparison with the control animals. The results were DE50 in mg/kg of <50 and <100 for the compounds of Examples 2 and 4, respectively. Stress was less noticeable in the treated animals and those animals had therefore a degree of anxiety less than that of the control animals.

SMILES | IC50 (benzodiazepine receptors) [nM] | LD0 (maximum dose not provoking any mortality in 8 days) (mice) [mg/kg] | ED50 [1] [mg/kg]
O=c1c2cnc3ccccc3c2on1-c1ccccc1 [Example 1, 2-phenylisoxazolo(4,5-c)quinolin-3-(2H)-one] | 120 | ≥ 400 | –
O=c1c2cnc3ccc(F)cc3c2on1-c1ccccc1 [Example 2, 8-fluoro-2-phenylisoxazolo(4,5-c)quinolin-3-(2H)-one] | 400 | ≥ 400 | < 50
COc1ccc2c(c1)ncc1c(=O)n(-c3ccccc3)oc12 [Example 3, 7-methoxy-2-phenylisoxazolo(4,5-c)quinolin-3-(2H)-one] | – | ≥ 200 | –
COc1ccc2ncc3c(=O)n(-c4ccccc4)oc3c2c1 [Example 4, 8-methoxy-2-phenylisoxazolo(4,5-c)quinolin-3-(2H)-one] | 2460 | 200 | < 100
O=c1c2cnc3ccc(C(F)(F)F)cc3c2on1-c1ccccc1 [Example 5, 8-trifluoromethyl-2-phenylisoxazolo(4,5-c)quinolin-3-(2H)-one] | – | ≥ 200 | –
O=c1c2cnc3ccc(Cl)cc3c2on1-c1ccccc1 [Example 7, 8-chloro-2-phenylisoxazolo(4,5-c)quinolin-3-(2H)-one] | – | ≥ 100 | –
